Measured values as given in patent publication US10155021B2, “Antimicrobial 4-oxoquinolizines” (Emergent Product Development Gaithersburg Inc., priority 2011, dated 2018).
Converted amounts (≈) assume the structure as drawn. Read-outs that look alike come from different tables or passages of the source.

What was measured:
[1] = test system: Acinetobacter spp. H064200250; experiment: MIC determination for Acinetobacter strains (Example 3); format: cell-based, Acinetobacter sp.; details: LEV R, CIP R, MRP R, IMP I
[2] = test system: resistant strains of A. baumannii and one strain of Acinetobacter sp.; experiment: MIC without and with sub-inhibitory polymyxin B, whole panel / MIC ranges (Example 4; also strains not listed separately); format: cell-based
[3] = test system: 11 strains of A. baumannii and one strain of Acinetobacter sp.; experiment: Preliminary MBC without and with sub-inhibitory polymyxin B, whole panel (Example 4; also strains not listed separately); format: cell-based; details: Acinetobacter baumannii, A. baumannii A14, without polymyxin B, 2nd experiment, read-out: MBC without PB
[4] = test system: Acinetobacter sp. (H064200250); experiment: MIC without and with sub-inhibitory polymyxin B (Example 4); format: cell-based; details: Acinetobacter, without polymyxin B, read-out: MIC without PB
A. baumannii A329 = experiment: as above; format: cell-based, Acinetobacter baumannii; details: A. baumannii A329; +0.06 μg/ml polymyxin B; 2nd experiment; visual reading
A. baumannii A387 = experiment: as above; format: cell-based, Acinetobacter baumannii; details: A. baumannii A387, +0.06 μg/ml polymyxin B
A. baumannii A472 = experiment: as above; format: cell-based, Acinetobacter baumannii; details: A. baumannii A472; ratio MIC without PB to MIC + PB, PB […]; 2nd experiment
A. baumannii A473 = experiment: as above; format: cell-based, Acinetobacter baumannii; details: A. baumannii A473; +0.06 μg/ml polymyxin B; 2nd experiment; visual reading
A. baumannii ATCC 19606 [5] = experiment: Preliminary MBC without and with sub-inhibitory polymyxin B (Example 4); format: cell-based, Acinetobacter baumannii; details: Acinetobacter baumannii, ATCC19606, A. baumannii ATCC 19606, without polymyxin B, preliminary MBC, read-out: MBC without PB
[6] = test system: Acinetobacter sp. (H064200250); experiment: as above; format: cell-based; details: Acinetobacter, without polymyxin B, preliminary MBC, read-out: MBC without PB
Description: The plates were incubated for 18-20 hours at 37° C. The MBC was read as the lowest concentration at which colony growth was ca. 90% less than the positive control (i.e. usually where single colonies or no colonies were observed).

B. thailandensis = experiment: microbe, parasite or virus in culture; format: cell-based, Burkholderia thailandensis; details: for MIC90: Burkholderia thailandensis, read-out: MIC90 B. thailandensis
B. thailandensis E264 = experiment: microbe, parasite or virus in culture; format: cell-based, Burkholderia thailandensis; details: Burkholderia thailandensis, E264, read-out: MIC B. thailandensis E264
E. coli ATCC 25922 = experiment: MIC, selected panel of Gram-positive and Gram-negative strains (Example 5); format: cell-based, Escherichia coli
P. aeruginosa ATCC 27853 = experiment: as above; format: cell-based
A. baumannii ATCC 19606 [7] = experiment: as above; format: cell-based, Acinetobacter baumannii
S. aureus ATCC 25923 = experiment: as above; format: cell-based
[8] = test system: S. aureus ATCC 43300 (MRSA, FQ-S); experiment: as above; format: cell-based, Staphylococcus aureus
[9] = test system: S. aureus BAA-1556 (USA300-Type MRSA, FQ-R); experiment: as above; format: cell-based, Staphylococcus aureus
[10] = Acinetobacter spp. H064200250, 1st experiment
[11] = Escherichia coli, ATCC25922, read-out: MIC E. coli ATCC 25922
[12] = Pseudomonas aeruginosa, ATCC27853, read-out: MIC P. aeruginosa ATCC 27853
[13] = Acinetobacter baumannii, ATCC19606, read-out: MIC A. baumannii ATCC 19606
[14] = Staphylococcus aureus, ATCC25923, read-out: MIC S. aureus ATCC 25923
[15] = Staphylococcus aureus, read-out: MIC S. aureus ATCC 43300 (MRSA, FQ-S)
[16] = Staphylococcus aureus, read-out: MIC S. aureus BAA-1556 (USA300-Type MRSA, FQ-R)

| Compound | MIC90 (B. thailandensis) | MIC (B. thailandensis E264) | MIC (E. coli ATCC 25922; [11]) | MIC (P. aeruginosa ATCC 27853; [12]) | MIC (A. baumannii ATCC 19606 [7]; [13]) | MIC (S. aureus ATCC 25923; [14]) | MIC [8, 15] | MIC [9, 16] | further results |
| --- | --- | --- | --- | --- | --- | --- | --- | --- | --- |
| NCC[C@H](O)C(=O)N[C@@H]1C[C@H](N)[C@@H](O[C@H]2O[C@H](CN)[C@@H](O)[C@H](O)[C@H]2O)[C@H](O)[C@H]1O[C@H]1O[C@H](CO)[C@@H](O)[C@H](N)[C@H]1O [Amikacin, reference compound] |  |  |  |  |  |  |  |  | MIC [1]: 16 µg/mL (≈ 27.3 µM); fold greater activity (fold lower MIC) in presence of polymyxin B compared to without polymyxin B [2]: not significantly affected; MIC +[…] PB ([2]; A. baumannii NCTC 13301, +[…] polymyxin B, 2nd experiment, visual reading): 128 µg/mL (≈ 219 µM); MBC [3]: 16 µg/mL (≈ 27.3 µM); MIC ([4]; Acinetobacter spp. H064200250 (OXA51), 2nd experiment, visual reading): 8 µg/mL (≈ 13.7 µM); MIC [4, 10]: 16 µg/mL (≈ 27.3 µM); MIC +0.06 μg/ml PB (A. baumannii A329): 128 µg/mL; MIC +0.06 μg/ml PB (A. baumannii A387; 2nd experiment, visual reading): 128 µg/mL; MIC ratio without/with polymyxin B (A. baumannii A472): ≥ 4 µg/mL; MIC +0.06 μg/ml PB (A. baumannii A473): 128 µg/mL; MBC (A. baumannii ATCC 19606 [5]; 2nd experiment): 16 µg/mL (≈ 27.3 µM); MBC (A. baumannii ATCC 19606 [5]; 1st experiment): 16 µg/mL (≈ 27.3 µM); MBC ([6]; Acinetobacter spp. H064200250 (OXA51), 2nd experiment): 8 µg/mL (≈ 13.7 µM); MBC [6, 10]: 16 µg/mL (≈ 27.3 µM) |
| 8-[(3S)-3-aminocyclopentyl]-1- cyclopropyl-7-fluoro-9-methyl- 4-oxo-quinolizine-3-carboxylic acid [Compound 10] |  |  |  |  |  |  |  |  | Dilutions improvement shift on B. thailandensis MIC90 (between pH 7 and pH 5) (B. thailandensis; pH 7 versus pH 5): Yes, 2×; MIC without PB/MIC + PB ([2]; A. baumannii A14, ratio, PB 0.06 μg/ml, 1st experiment): 1; MIC +0.06 μg/ml PB (A. baumannii A387; 1st experiment): 0.5 µg/mL |
| Cc1c(-c2ccc(C#N)cc2)ccn2c(=O)c(C(=O)O)cc(C3CC3)c12 [Compound 14, 8-(4-cyanophenyl)-1-cyclopropyl-9-methyl-4-oxo-quinolizine-3-carboxylic acid] | < 0.048 µg/mL |  |  |  |  |  |  |  |  |
| Cc1c(-c2ccc(CN)s2)ccn2c(=O)c(C(=O)O)cc(C3CC3)c12 [Compound 13] | 0.195 µg/mL (≈ 0.55 µM) |  |  |  |  |  |  |  |  |
| Cc1c(-c2cn[nH]c2)ccn2c(=O)c(C(=O)[O-])cc(C3CC3)c12.[K+] [Compound 67K salt, potassium 8-(1H-pyrazol-4-yl)-1-cyclopropyl-9-methyl-4-oxo-4H-quinolizine-3-carboxylate] |  | 0.25 µg/mL | 0.032 µg/mL | 2 µg/mL | 0.25 µg/mL | 0.016 µg/mL | 0.016 µg/mL | 1 µg/mL |  |
| Cc1c(-c2ccc3[nH]cnc3c2)ccn2c(=O)c(C(=O)[O-])cc(C3CC3)c12.[K+] [Compound 74K salt, potassium 8-(1H-benzo[d]imidazol-5-yl)-1-cyclopropyl-9-methyl-4-oxo-4H-quinolizine-3-carboxylate] |  | 2 µg/mL | 0.064 to 0.125 µg/mL | 8 µg/mL | 0.5 µg/mL | 0.016 µg/mL | 0.016 µg/mL | 0.5 µg/mL |  |
| Cc1c(-c2ccc3c(c2)NC(=O)C(N)C3)ccn2c(=O)c(C(=O)O)cc(C3CC3)c12 (stereo not drawn) [Compound 54, 8-(3-amino-2-oxo-3,4-dihydro-1H-quinolin-7-yl)-1-cyclopropyl-9-methyl-4-oxo-quinolizine-3-carboxylic acid] |  | 4 µg/mL (≈ 9.91 µM) |  |  |  |  |  |  | MIC (E. coli ATCC 25922; Escherichia coli, ATCC25922; read-out: MIC E. coli ATCC 25922): 0.25 µg/mL (≈ 0.62 µM); MIC (P. aeruginosa ATCC 27853; Pseudomonas aeruginosa, ATCC27853; read-out: MIC P. aeruginosa ATCC 27853): > 8 µg/mL; MIC (A. baumannii ATCC 19606 [7]; Acinetobacter baumannii, ATCC19606; read-out: MIC A. baumannii ATCC 19606): 4 µg/mL (≈ 9.91 µM); MIC (S. aureus ATCC 25923; Staphylococcus aureus, ATCC25923; read-out: MIC S. aureus ATCC 25923): 0.064 to 0.125 µg/mL (≈ 0.159 to 0.31 µM); MIC ([8]; Staphylococcus aureus; read-out: MIC S. aureus ATCC 43300 (MRSA, FQ-S)): 0.064 µg/mL (≈ 0.159 µM); MIC ([9]; Staphylococcus aureus; read-out: MIC S. aureus BAA-1556 (USA300-Type MRSA, FQ-R)): 0.5 µg/mL (≈ 1.24 µM) |
| Cc1c(-c2cnc3[nH]ccc3c2)ccn2c(=O)c(C(=O)[O-])cc(C3CC3)c12.[K+] [Compound 85K salt, potassium 8-(1H-pyrrolo[2,3-b]pyridin-5-yl)-1-cyclopropyl-9-methyl-4-oxo-4H-quinolizine-3-carboxylate] |  | 0.25 µg/mL | 0.032 µg/mL | 1 µg/mL | 0.064 µg/mL | ≤ 0.004 µg/mL | ≤ 0.004 µg/mL | 0.064 to 0.125 µg/mL |  |
| Cc1c(-c2ccncc2)c(F)cn2c(=O)c(C(=O)[O-])cc(C3CC3)c12.[K+] [Compound 59K salt, potassium 8-(pyridin-4-yl)-1-cyclopropyl-7-fluoro-9-methyl-4-oxo-4H-quinolizine-3-carboxylate] |  | 0.5 µg/mL | 0.064 µg/mL | 4 µg/mL | 0.25 µg/mL | 0.032 µg/mL | 0.016 µg/mL | 0.5 µg/mL |  |
| Cc1ccc(-c2ccn3c(=O)c(C(=O)O)cc(C4CC4)c3c2C)cc1 [Compound 15, 8-(p-tolyl)-1-cyclopropyl-9-methyl-4-oxo-quinolizine-3-carboxylic acid] | < 0.048 µg/mL |  |  |  |  |  |  |  |  |
| Cc1c(-c2ccc3c(c2)C(=O)NC3)ccn2c(=O)c(C(=O)[O-])cc(C3CC3)c12.[K+] [Compound 68K salt, potassium 8-(3-oxoisoindolin-5-yl)-1-cyclopropyl-9-methyl-4-oxo-4H-quinolizine-3-carboxylate] |  | 1 µg/mL | 0.064 µg/mL | 2 µg/mL | 0.25 µg/mL | ≤ 0.004 µg/mL | ≤ 0.004 µg/mL | 0.25 µg/mL |  |
| Cc1c(-c2cccc3[nH]ncc23)ccn2c(=O)c(C(=O)[O-])cc(C3CC3)c12.[K+] [Compound 82K salt, potassium 8-(1H-indazol-4-yl)-1-cyclopropyl-9-methyl-4-oxo-4H-quinolizine-3-carboxylate] |  | 4 µg/mL | 0.125 to 0.25 µg/mL | 8 µg/mL | 1 µg/mL | 0.016 µg/mL | 0.016 µg/mL | 1 µg/mL |  |
| Cc1c(-c2ccc(CN)o2)ccn2c(=O)c(C(=O)O)cc(C3CC3)c12 [Compound 12] | 0.39 µg/mL (≈ 1.15 µM) |  |  |  |  |  |  |  |  |
| Cc1cc(-c2ccn3c(=O)c(C(=O)O)cc(C4CC4)c3c2C)c(Cl)cc1N [Compound 11, 8-(2-chloro-4-amino-5-methyl-phenyl)-1-cyclopropyl-9-methyl-4-oxo-quinolizine-3-carboxylic acid] | < 0.048 µg/mL |  |  |  |  |  |  |  |  |
| Cc1c(-c2ccc(O)c(CN)c2)ccn2c(=O)c(C(=O)[O-])cc(C3CC3)c12.[K+] [Compound 72K salt, potassium 8-(3-(aminomethyl)-4-hydroxyphenyl)-1-cyclopropyl-9-methyl-4-oxo-4H-quinolizine-3-carboxylate] |  | 2 µg/mL | 0.008 to 0.016 µg/mL | 0.5 µg/mL | 0.25 µg/mL | 0.008 µg/mL | 0.008 to 0.016 µg/mL | 0.25 µg/mL |  |
